Results published in patent US8481551B2, “Gyrase and topoisomerase IV inhibitors” (Vertex Pharmaceuticals Incorporated, priority 2011, dated 2013).
pIC50, pKi: −log10 of the molar value. Structures can show the parent of a compound that is named as a salt.

Columns and labels:
[1] = test system: M. tuberculosis; test: MIC determination procedure for Mycobacterium species (Protocol 4); type: cell-based
[2] = test system: M. abscessus; test: as above; type: cell-based; conditions: Mycobacteroides abscessus
[3] = biological target: S. aureus DNA gyrase (Staphylococcus aureus, UniProt P0A0K8); test: DNA gyrase ATPase assay; conditions: 90 nM enzyme, 0.9 mM ATP, 30° C.
[4] = biological target: S. aureus TopoIV enzyme (Staphylococcus aureus, UniProt P0C1S7); test: DNA Topo IV ATPase assay; type: biochemical; conditions: 64 nM enzyme, 30° C., Morrison Equation fit
Sequence of S. aureus TopoIV enzyme (P0C1S7 whole entry): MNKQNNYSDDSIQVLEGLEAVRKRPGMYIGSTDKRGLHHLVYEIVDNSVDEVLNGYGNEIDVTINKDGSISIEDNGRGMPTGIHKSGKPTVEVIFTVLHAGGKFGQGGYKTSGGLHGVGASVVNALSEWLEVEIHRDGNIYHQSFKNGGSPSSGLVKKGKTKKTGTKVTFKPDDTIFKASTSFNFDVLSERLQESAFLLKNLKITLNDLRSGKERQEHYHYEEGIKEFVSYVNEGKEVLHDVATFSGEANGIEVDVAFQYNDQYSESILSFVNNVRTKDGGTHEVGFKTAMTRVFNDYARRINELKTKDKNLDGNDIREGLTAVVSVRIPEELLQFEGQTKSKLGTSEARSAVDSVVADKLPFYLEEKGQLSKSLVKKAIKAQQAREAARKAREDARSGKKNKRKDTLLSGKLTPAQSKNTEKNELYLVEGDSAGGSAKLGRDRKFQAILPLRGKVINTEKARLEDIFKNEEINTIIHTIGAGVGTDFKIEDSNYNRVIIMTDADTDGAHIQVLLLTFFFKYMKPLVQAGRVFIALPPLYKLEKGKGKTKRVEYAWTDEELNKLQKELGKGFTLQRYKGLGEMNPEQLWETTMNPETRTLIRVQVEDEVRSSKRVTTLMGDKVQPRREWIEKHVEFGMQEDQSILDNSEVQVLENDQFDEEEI
Sequence of S. aureus TopoIV enzyme (P0C1U9 whole entry partner): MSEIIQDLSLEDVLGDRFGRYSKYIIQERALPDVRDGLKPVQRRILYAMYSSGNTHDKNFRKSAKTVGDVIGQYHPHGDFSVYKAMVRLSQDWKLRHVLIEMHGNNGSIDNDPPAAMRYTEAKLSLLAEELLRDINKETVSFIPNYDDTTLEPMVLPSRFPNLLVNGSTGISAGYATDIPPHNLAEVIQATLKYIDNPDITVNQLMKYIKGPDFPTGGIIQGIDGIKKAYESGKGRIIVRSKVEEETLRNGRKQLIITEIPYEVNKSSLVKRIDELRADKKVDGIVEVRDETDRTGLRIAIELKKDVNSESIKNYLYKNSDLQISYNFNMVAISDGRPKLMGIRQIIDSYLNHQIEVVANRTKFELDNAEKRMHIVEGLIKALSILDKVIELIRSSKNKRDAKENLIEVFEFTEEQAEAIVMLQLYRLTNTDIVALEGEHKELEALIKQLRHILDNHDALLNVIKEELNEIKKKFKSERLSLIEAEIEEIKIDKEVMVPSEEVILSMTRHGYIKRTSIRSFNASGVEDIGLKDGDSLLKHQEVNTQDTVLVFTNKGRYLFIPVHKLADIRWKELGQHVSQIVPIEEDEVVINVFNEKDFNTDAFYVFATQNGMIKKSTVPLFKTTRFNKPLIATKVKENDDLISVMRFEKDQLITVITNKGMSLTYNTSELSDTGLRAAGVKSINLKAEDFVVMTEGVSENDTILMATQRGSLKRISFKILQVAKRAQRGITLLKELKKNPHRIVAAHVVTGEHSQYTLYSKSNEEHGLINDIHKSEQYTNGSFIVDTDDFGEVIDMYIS

Sequence of S. aureus DNA gyrase (P20831 whole entry): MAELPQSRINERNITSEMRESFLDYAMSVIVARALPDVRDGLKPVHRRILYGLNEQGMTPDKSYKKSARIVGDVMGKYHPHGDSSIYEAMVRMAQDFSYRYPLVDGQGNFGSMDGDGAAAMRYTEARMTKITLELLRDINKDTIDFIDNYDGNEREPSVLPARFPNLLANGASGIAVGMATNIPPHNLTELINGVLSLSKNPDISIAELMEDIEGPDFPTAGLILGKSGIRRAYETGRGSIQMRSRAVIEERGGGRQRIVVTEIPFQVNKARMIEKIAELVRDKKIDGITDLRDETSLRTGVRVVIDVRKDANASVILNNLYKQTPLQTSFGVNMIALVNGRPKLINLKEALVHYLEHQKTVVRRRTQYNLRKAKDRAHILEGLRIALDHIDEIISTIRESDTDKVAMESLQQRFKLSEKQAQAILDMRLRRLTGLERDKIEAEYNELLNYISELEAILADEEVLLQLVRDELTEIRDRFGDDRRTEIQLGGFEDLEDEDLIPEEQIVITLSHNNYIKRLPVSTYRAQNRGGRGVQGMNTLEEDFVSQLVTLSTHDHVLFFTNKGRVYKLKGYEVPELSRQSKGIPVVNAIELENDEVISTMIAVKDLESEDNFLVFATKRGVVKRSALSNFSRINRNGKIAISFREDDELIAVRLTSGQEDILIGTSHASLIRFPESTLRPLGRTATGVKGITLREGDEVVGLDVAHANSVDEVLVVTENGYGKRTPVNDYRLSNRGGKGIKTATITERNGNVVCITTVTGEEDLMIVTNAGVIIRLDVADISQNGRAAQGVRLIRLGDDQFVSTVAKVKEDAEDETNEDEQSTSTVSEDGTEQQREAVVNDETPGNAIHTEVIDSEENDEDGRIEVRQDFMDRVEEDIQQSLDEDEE
Sequence of S. aureus DNA gyrase (P0A0K8 whole entry): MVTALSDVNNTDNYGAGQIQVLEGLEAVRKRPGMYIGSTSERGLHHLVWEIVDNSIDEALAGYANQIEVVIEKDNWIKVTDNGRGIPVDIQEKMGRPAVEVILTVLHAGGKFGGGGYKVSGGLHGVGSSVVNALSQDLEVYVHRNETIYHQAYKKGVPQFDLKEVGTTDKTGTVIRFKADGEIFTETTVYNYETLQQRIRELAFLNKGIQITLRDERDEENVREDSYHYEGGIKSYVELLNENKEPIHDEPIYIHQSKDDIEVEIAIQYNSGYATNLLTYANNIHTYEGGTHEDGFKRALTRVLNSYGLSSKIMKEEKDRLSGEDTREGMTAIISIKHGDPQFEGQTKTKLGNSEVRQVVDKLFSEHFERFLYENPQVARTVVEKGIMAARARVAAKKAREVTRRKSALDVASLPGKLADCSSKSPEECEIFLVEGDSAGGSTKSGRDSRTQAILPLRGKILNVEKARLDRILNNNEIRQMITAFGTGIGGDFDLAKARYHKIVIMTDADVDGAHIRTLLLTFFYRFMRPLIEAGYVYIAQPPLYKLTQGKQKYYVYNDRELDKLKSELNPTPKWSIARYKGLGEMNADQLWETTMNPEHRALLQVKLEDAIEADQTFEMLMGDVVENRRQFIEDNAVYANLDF

`CCNC(=O)Nc1nc2cc(-c3cnc(C(C)(C)O)nc3)cc([C@H]3CCCO3)c2[nH]1` [Compound 13, methanesulfonic acid salt of 1-ethyl-3-[5-[2-(1-hydroxy-1-methyl-ethyl)pyrimidin-5-yl]-7-[(2R)-tetrahydrofuran-2-yl]-1H-benzimidazol-2-yl]urea] was tested. Which MIC ([1]; ATCC 25618 / H37Rv, M. tuberculosis H37Rv ATCC 25618) did it give?
Its MIC is 0.37 µg/mL.

And the MIC ([1]; ATCC 35801 / ERDMAN, M. tuberculosis Erdman ATCC 35801)?
Its MIC is 0.25 µg/mL.

Which MIC ([2]; M. abscessus BB1) does the source give for `CCNC(=O)Nc1nc2cc(-c3cnc(C(C)(C)O)nc3)c(F)c([C@H]3CCCO3)c2[nH]1` [Compound 23A, methanesulfonic acid salt of 1-ethyl-3-[6-fluoro-5-[2-(1-hydroxy-1-methyl-ethyl)pyrimidin-5-yl]-7-[(2R)-tetrahydrofuran-2-yl]-1H-benzimidazol-2-yl]urea] here?
The MIC was 2 µg/mL.

What about the MIC ([2]; M. abscessus BB2) of the same compound?
Its MIC is 1 µg/mL.

And the MIC ([2]; M. abscessus BB3)?
The MIC was 0.5 µg/mL.

And the MIC ([2]; M. abscessus BB4)?
Its MIC is 2 µg/mL.

And the MIC ([2]; M. abscessus BB5)?
The MIC was 0.5 µg/mL.

And the MIC ([2]; M. abscessus BB6)?
The MIC was 0.5 µg/mL.

What about the MIC ([2]; M. abscessus BB8) of the same compound?
Its MIC is 0.5 µg/mL.

What about the MIC ([2]; M. abscessus LT 949) of the same compound?
The MIC was 1 µg/mL.

What about the MIC ([2]; M. abscessus MC 5812) of the same compound?
The MIC was 1 µg/mL.

What about the MIC ([2]; M. abscessus MC 5901) of the same compound?
Its MIC is 1 µg/mL.

What about the MIC ([2]; M. abscessus MC 5908 (second listing, r109)) of the same compound?
Its MIC is 1 µg/mL.

What about the MIC ([2]; M. abscessus MC 5922) of the same compound?
The MIC was 0.25 µg/mL.

What about the MIC ([2]; M. abscessus MC 5931) of the same compound?
The MIC was 0.5 µg/mL.

What about the MIC ([2]; M. abscessus MC 5960) of the same compound?
The MIC was 0.5 µg/mL.

What about the MIC ([2]; M. abscessus MC 6005) of the same compound?
The MIC was 1 µg/mL.

What about the MIC ([2]; M. abscessus MC 6025) of the same compound?
The MIC was 0.75 µg/mL.

And the MIC ([2]; M. abscessus MC 6111)?
Its MIC is 0.5 µg/mL.

And the MIC ([2]; M. abscessus MC 6136)?
Its MIC is 0.5 µg/mL.

And the MIC ([2]; M. abscessus MC 6142)?
Its MIC is 0.5 µg/mL.

What about the MIC ([2]; M. abscessus MC 6153) of the same compound?
The MIC was 1 µg/mL.

`CCNC(=O)Nc1nc2cc(-c3cnc(C(C)(C)OP(=O)([O-])[O-])nc3)c(F)c([C@H]3CCCO3)c2[nH]1.[Na+].[Na+]` [Compound W, disodium (R)-2-(5-(2-(3-ethylureido)-6-fluoro-7-(tetrahydrofuran-2-yl)-1H-benzo[d]imidazol-5-yl)pyrimidin-2-yl)propan-2-yl phosphate] was tested. Which pIC50 [3] did it give?
Its pIC50 is 7.27.

And the pIC50 [4]?
Its pIC50 is 6.82.

And the pKi [4]?
The pKi was 7.52.
